Measurements taken from ChEMBL document CHEMBL1147957, “Synthesis and antitubercular activity of phenothiazines with reduced binding to dopamine and serotonin receptors” (2007).
Converted amounts (≈) assume the structure as drawn. “And” between values parts separate entries of the source, which are not always exact repeats. Equal entries are not always repeated.

Assays:
[1] = tested on: Mycobacterium tuberculosis; assay: Antitubercular activity against Mycobacterium tuberculosis H37Rv by MABA assay; assay type: functional
[2] = biological target: D(2) dopamine receptor (Homo sapiens) (UniProt P14416); assay: Displacement of [3H]YM091512 from dopamine D2 receptor at 10 uM
[3] = biological target: T1, 5-hydroxytryptamine receptor 1A (Homo sapiens) (UniProt P08908); assay: Displacement of [3H]8-OH-DPAT from 5HT1A receptor at 10 uM
T1 sequence (whole entry): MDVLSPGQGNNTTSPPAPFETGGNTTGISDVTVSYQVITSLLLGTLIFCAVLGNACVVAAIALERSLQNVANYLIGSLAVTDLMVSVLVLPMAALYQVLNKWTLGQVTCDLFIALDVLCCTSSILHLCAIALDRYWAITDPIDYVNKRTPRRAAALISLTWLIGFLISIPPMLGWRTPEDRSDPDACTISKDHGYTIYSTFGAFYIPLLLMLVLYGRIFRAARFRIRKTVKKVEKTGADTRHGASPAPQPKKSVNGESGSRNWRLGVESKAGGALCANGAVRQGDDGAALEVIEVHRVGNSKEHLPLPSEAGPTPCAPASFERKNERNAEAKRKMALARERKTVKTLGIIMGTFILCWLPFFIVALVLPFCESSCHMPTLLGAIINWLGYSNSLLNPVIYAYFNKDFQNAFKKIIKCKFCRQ

[4] = biological target: T2, 5-hydroxytryptamine receptor 2C (Homo sapiens) (UniProt P28335); assay: Displacement of [3H]mesulergine from 5HT2C receptor at 10 uM
T2 sequence (whole entry): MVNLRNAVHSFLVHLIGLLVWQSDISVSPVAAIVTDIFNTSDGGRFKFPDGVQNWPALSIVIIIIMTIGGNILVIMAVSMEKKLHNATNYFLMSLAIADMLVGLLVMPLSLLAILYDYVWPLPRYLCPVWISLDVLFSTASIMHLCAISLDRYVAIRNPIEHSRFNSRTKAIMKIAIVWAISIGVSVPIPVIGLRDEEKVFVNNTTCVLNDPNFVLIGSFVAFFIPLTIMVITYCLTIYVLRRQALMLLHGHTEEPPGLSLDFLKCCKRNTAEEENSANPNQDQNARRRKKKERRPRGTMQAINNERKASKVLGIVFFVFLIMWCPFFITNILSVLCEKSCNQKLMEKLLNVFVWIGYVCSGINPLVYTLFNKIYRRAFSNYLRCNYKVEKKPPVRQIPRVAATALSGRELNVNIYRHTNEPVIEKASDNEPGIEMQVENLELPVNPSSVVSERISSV

D(2) dopamine receptor (Homo sapiens), sequence (P14416 whole entry): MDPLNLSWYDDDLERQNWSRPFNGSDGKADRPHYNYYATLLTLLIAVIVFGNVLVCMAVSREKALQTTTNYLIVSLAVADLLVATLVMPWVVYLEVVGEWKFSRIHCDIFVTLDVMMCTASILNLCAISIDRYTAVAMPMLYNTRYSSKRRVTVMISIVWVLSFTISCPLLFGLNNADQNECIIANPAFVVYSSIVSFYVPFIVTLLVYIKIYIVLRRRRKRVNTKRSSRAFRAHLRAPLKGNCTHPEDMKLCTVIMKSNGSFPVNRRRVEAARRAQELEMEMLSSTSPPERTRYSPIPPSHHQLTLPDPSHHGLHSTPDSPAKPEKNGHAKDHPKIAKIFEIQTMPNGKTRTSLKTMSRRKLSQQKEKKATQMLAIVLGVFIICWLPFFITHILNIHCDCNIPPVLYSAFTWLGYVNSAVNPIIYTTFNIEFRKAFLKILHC

| SMILES | MIC [1] [µg/mL] | Activity [2] | Activity [3] | Activity [4] |
| --- | --- | --- | --- | --- |
| CN1CCCC(CN2c3ccccc3Sc3cc(F)ccc32)C1 (centres undefined) | 10.8 (≈ 32.9 µM) | 87% | 7% | 89% |
| CC(CO)NCc1ccc(CN2c3ccccc3Sc3ccc(C(F)(F)F)cc32)cc1 (centres undefined) | 6.4 (≈ 14.4 µM) | 93% | 24% | 59% |
| FC(F)(F)c1ccc2c(c1)N(Cc1ccc(CNc3cccc(Oc4ccccc4)c3)cc1)c1ccccc1S2 | > 20 | 26% | 0% | 0% |
| CCN(CC)CCCN1c2ccccc2Sc2ccc(C(F)(F)F)cc21 | 15 (≈ 39.4 µM) | 100% | 63% | 94% |
| CN1CCCC(CN2c3ccccc3Sc3ccc(C(F)(F)F)cc32)C1 (centres undefined) | 7.2 (≈ 19 µM) | 87% | 5% | 56% |
| FC(F)(F)c1ccc2c(c1)N(Cc1ccc(CNc3nccs3)cc1)c1ccccc1S2 | > 10 | 11% | 0% | 0% |
| CN1CCN(CCCN2c3ccccc3Sc3ccc(C(F)(F)F)cc32)CC1.Cl | 6 | – | – | – |
| CN1CCCC(CN2c3ccccc3Sc3ccccc32)C1 (centres undefined) [MEPAZINE] | 17 (≈ 54.8 µM) | 88% | 0% | 29% |
| OC1CCN(CCCN2c3ccccc3Sc3ccc(C(F)(F)F)cc32)C1 (centres undefined) | 11 (≈ 27.9 µM) | 74% | 62% | 95% |
| FC(F)(F)c1ccc2c(c1)N(CCCN1CCN(c3ncccn3)CC1)c1ccccc1S2 | 16 (≈ 33.9 µM) | 50% | 94% | 85% |
| FC(F)(F)c1ccc2c(c1)N(CCCNc1nccs1)c1ccccc1S2 | 14 (≈ 34.4 µM) | 95% | 54% | 81% |
| FC(F)(F)c1ccc2c(c1)N(CCCNCc1ccccc1)c1ccccc1S2 | 4.2 (≈ 10.1 µM) | 97% | 61% | 85% |
| FC(F)(F)c1ccc2c(c1)N(Cc1ccc(CN3c4ccccc4Sc4ccc(C(F)(F)F)cc43)cc1)c1ccccc1S2 | 2 (≈ 3.14 µM) | 40% | 0% | 0% |
| CSc1ccc2c(c1)Sc1ccccc1N2CC1CCCN(C)C1 (centres undefined) | 11.6 (≈ 32.5 µM) | – | 67% | – |
| Cc1ccc2c(c1)Sc1ccccc1N2CC1CCCN(C)C1 (centres undefined) | 7.2 (≈ 22.2 µM) | 93% | 0% | 26% |
| OC1CCN(Cc2ccc(CN3c4ccccc4Sc4ccc(C(F)(F)F)cc43)cc2)C1 (centres undefined) | 8.4 (≈ 18.4 µM) | 79% | 0% | 65% |
| CC1CN(Cc2ccc(CN3c4ccccc4Sc4ccc(C(F)(F)F)cc43)cc2)CC(C)O1 (centres undefined) | > 20 | 75% | 0% | 7% |
| FC(F)(F)c1ccc2c(c1)N(CCCNc1cccc(Oc3ccccc3)c1)c1ccccc1S2 | > 20 | 0% | 0% | 5% |
| CN1CCCC(CN2c3ccccc3Sc3cc(Cl)ccc32)C1 (centres undefined) | 14.3 (≈ 41.5 µM) | 94% | 0% | 67% |
| CN(C)CCCN1c2ccccc2Sc2ccc(Cl)cc21.Cl [CHLORPROMAZINE HYDROCHLORIDE] | 6 | 96% | 44% | 86% |

| SMILES | MIC [1] [µg/mL] | Activity [2] | Activity [3] | Activity [4] |
| --- | --- | --- | --- | --- |
| CN(CCCN1c2ccccc2Sc2ccc(C(F)(F)F)cc21)Cc1ccccc1 | > 20 | 99% | 31% | 68% |
| CN1CCN(CCCN2c3ccccc3Sc3ccc(C(F)(F)F)cc32)CC1 [TRIFLUOPERAZINE] | 7.6 (≈ 18.7 µM) | – | – | – |
| CC1CN(CCCN2c3ccccc3Sc3ccc(C(F)(F)F)cc32)CC(C)O1 (centres undefined) | > 20 | 99% | 98% | 30% |
| CCN(CC)Cc1ccc(CN2c3ccccc3Sc3ccc(C(F)(F)F)cc32)cc1 | > 10 | 97% | 23% | 57% |
| FC(F)(F)c1ccc2c(c1)N(Cc1ccc(CNCc3ccccc3)cc1)c1ccccc1S2 | > 20 | 13% | 0% | 0% |
| CN1CCN(Cc2ccc(CN3c4ccccc4Sc4ccc(C(F)(F)F)cc43)cc2)CC1 | 15 (≈ 31.9 µM) | 14% | 0% | 0% |
| FC(F)(F)c1ccc2c(c1)N(Cc1ccc(CN3CCN(c4ncccn4)CC3)cc1)c1ccccc1S2 | > 20 | 72% | 10% | 0% |
| FC(F)(F)c1ccc2c(c1)N(Cc1ccc(CNc3ccccn3)cc1)c1ccccc1S2 | > 10 | 90% | 0% | 53% |
| CN1CCN(CCCN2c3ccccc3Sc3ccc(C(F)(F)F)cc32)CC1 | – | 100% and 98% | 76% and 67% | 91% and 97% |
| CC(CO)NCCCN1c2ccccc2Sc2ccc(C(F)(F)F)cc21 (centres undefined) | 4.6 (≈ 12 µM) | 100% | 58% | 91% |
| CN1CCCC(CN2c3ccccc3Sc3cc(N4CCOCC4)ccc32)C1 (centres undefined) | > 2 | 59% | 0% | 7% |
| FC(F)(F)c1ccc2c(c1)N(CCCN1c3ccccc3Sc3ccc(C(F)(F)F)cc31)c1ccccc1S2 | 2.3 (≈ 4 µM) | 48% | 67% | 83% |
| CN1CCCC(CN2c3ccccc3Sc3ccc(-c4ccccc4)cc32)C1 (centres undefined) | 4.5 (≈ 11.6 µM) | 97% | 1% | 14% |
| CN1CCCC(CN2c3ccccc3Sc3cnccc32)C1 (centres undefined) | > 20 | – | – | – |
| CN(Cc1ccccc1)Cc1ccc(CN2c3ccccc3Sc3ccc(C(F)(F)F)cc32)cc1 | > 20 | 66% | 4% | 0% |
| CN1CCCC(CN2c3ccccc3Sc3cccnc32)C1 (centres undefined) | > 10 | 86% | 19% | 47% |
| FC(F)(F)c1ccc2c(c1)N(CCCNc1ccccn1)c1ccccc1S2 | 20 (≈ 49.8 µM) | 85% | 45% | 93% |
| COc1ccc2c(c1)Sc1ccccc1N2CC1CCCN(C)C1 (centres undefined) | > 20 | 75% | 0% | 41% |
| CN1CCCC(CN2c3ccccc3Sc3cc(-c4ccccc4)ccc32)C1 (centres undefined) | 2.1 (≈ 5.43 µM) | 96% | 0% | 58% |
